Laboratory results: patent US20250304578A1, “NITROGEN-CONTAINING FUSED HETEROCYCLIC COMPOUNDS OF N-SULFONAMIDE AND USE THEREOF” (NUTSHELL THERAPEUTICS (SHANGHAI) CO., LTD., priority 2023, published 2025)
Where two headings read alike, the source gives them in different places.

Tests used:
NUGC-3 cells = experiment: Anti-proliferation effect on NUGC-3 cells (Cell Counting Kit-8); format: cell-based; conditions: Homo sapiens, NUGC-3, 120 h; 5 days of treatment
Description: Cell line NUGC-3 (JCRB, JCRB0822) was cultured in RPMI 1640 (Invitrogen, 11875-085) medium supplemented with 10% (v/v) fetal bovine serum (BI, 04-002-1A), according to the standard instructions of the American Type Culture Collection. The cell line was authenticated by short tandem repeat profiling.
In the proliferation assay, 1000 NUGC-3 cells were seeded in a 96-well flat clear bottom, TC-treated plate (Corning, 3903) in 200 μL of medium per well, and allowed to recover overnight in culture medium. Compounds were added with increasing concentration, with DMSO treatment serving as a […] control. After 5 days of treatment, the plate was equilibrated to room temperature for 30 minutes, and the number of living cells was measured by the addition of the Cell Counting Kit-8 reagent (MCE, HY-K0301). Absorbance was measured on an Enspire (Perkin elme). The relative viability of each group was presented as the percentage change relative to the […] control group and then fit to a four-parameter logit non-linear curve using the program XLFit (IDBS)

CYP3A4/5 = experiment: Multi-concentration inhibitory activity curve of CYP3A4/5 enzymes; format: in vitro ADME; conditions: pH 7.4, probe testosterone; human liver microsomes; substrate testosterone; read-out: CYP3A4/5 IC50 (μM) (Testosterone)
Description: The buffer was filtered through a 0.45 μm filter.
Liver microsome working solution (final system concentration of 0.5 mg/mL) was prepared. […] The above stock solution was diluted with acetonitrile (4-fold dilution, 6 non-zero concentrations).
The half-maximal inhibitory concentration (IC50) was calculated using Graph Pad Prism.

[1] = Metabolic stability test in hepatocytes; format: in vitro ADME; conditions: for hepatocyte CLint at 1 μM: read-out: In vitro Clint (μL/min/10^6 cells); for half-life at 1 μM: read-out: In vitro t1/2
Description: The test compound and the control drug verapamil powder were prepared into a high concentration stock solution using DMSO, and diluted to a 100 μM working solution with 50% acetonitrile/water before use, with final concentrations of 1 μM for the test compound and verapamil.
• 1) 49.5 mL of Williams' Medium E and 0.5 mL GlutaMAX were mixed as the incubation solution. The hepatocyte recovery solution and the incubation solution were pre-warmed in a 37° C. water bath for at least 15 minutes prior to use. • 2) A tube of cryopreserved hepatocytes was taken, ensuring that the hepatocytes were still in a cryogenic frozen state prior to resuscitation. The hepatocytes were quickly placed in a 37° C. water bath and gently shaken until all ice crystals were completely dispersed, sprayed with 70% ethanol and transferred to a biosafety cabinet. • 3) The contents of the hepatocyte tube were poured into a centrifuge tube containing 50 mL of recovery medium, which were centrifuged at 100 g for 10 minutes. After centrifugation, the recovery medium was aspirated, and sufficient incubation medium was added to obtain a cell suspension having a cell density of approximately 1.5×10^6 cells/mL. • 4) Cellometer Vision was used to count hepatocytes and determine the density of viable cells. The survival rate of hepatocytes must be greater than 75%. The hepatocyte suspension was diluted with incubation medium to a viable cell density of 0.5×10^6 cells/mL. • 5) A portion of hepatocyte suspension with a density of 0.5×10^6 cells/mL was boiled in water for 5 minutes to inactivate as a negative control. After cells were inactivated, substrate conversion mediated by non-cellular enzymes could be easily investigated.
• 1) 198 μL of the suspension of live or inactivated cells was transferred to a 96-well deep-well plate, which was then placed on a vortexer and preheated in an incubator for 10 minutes. Live cells were incubated in duplicate, while inactivated cells were incubated in single. • 2) 2 μL of 100 μM test compound or verapamil was added to each well for the reaction initiation, and the deep-well plate was placed back on the incubator vortexer. • 3) 25 μL of the suspension were taken from the incubated samples at 0, 15, 30, 60, 90, and 120 minutes, respectively, and added to 150 μL of acetonitrile containing internal standards (200 nM alprazolam, 200 nM labetalol, 2 μM ketoprofen, and 200 nM caffeine) to terminate the reaction. The mixture was vortexed for 10 minutes and centrifuged at 3220 g and 4° C. for 30 minutes. After centrifugation was completed, 100 μL of the supernatant and 100 μL of ultra-pure water were mixed well for UPLC-MS/MS analysis detection.
All data calculations were performed using Microsoft Excel software. Peak areas were detected by extracting the ion chromatogram. The in vitro half-life (t1/2) of the parent drug was detected by linear fitting of the natural logarithm of the percentage of parent drug […] with time.
The in vitro half-life (t1/2) was calculated by the slope: […]
In vitro intrinsic clearance (unit μL/min/10^6 cells) was calculated using the following formula:
[formula] • V=incubation volume per well (0.2 mL); • N=number of cells per well (0.1×10^6 cells)

[2] = Metabolic stability in liver microsomes; format: in vitro ADME; conditions: for microsomal CLint at 1 μM: read-out: In vitro Clint (μL/min/mg protein); for half-life at 1 μM: read-out: In vitro t1/2
Description: The test compound and the positive control compound (dextromethorphan as a control compound) were dissolved respectively in DMSO to prepare a stock solution with a concentration of 10 mM, and the above stock solution was diluted into 200 μM working solution with DMSO. 8.709 g of potassium hydrogen phosphate (K2HPO4) was dissolved in 950 mL of water, and the pH value of the solution was adjusted to 7.4 with hydrochloric acid, and then the volume was adjusted to 1000 mL with water. After filtration using a 0.22 μm filter membrane, the mixture was stored in a 4° C. refrigerator for later use. After liver microsomes of various species (protein concentration of 20 mg/mL) were thawed in a 37° C. water bath, the liver microsomes were diluted with a phosphate buffer respectively to obtain a liver microsome working solution with protein concentration of 0.629 mg/mL. 5 mM NADPH solution was prepared using the above phosphate buffer for later use. 1 mg/mL stock solution of terfenadine/tolbutamide was prepared with DMSO and then diluted with a 50% methanol/50% acetonitrile mixed solution to a reaction stop solution containing 5/10 ng/mL (terfenadine/tolbutamide) internal standard.
238.5 μL of liver microsome working solutions of various species were added to a 1.1 mL microtube, and 1.5 μL of the test compound working solution or the positive control compound (dextromethorphan) working solution (200 μM) was added respectively, mixed well, and pre-incubated in a 37° C. water bath for 5 minutes. 60 μL of NADPH solution was added to start the reaction, and after mixing well, at the time points of 0, 5, 15, 30, and 60 minutes after the reaction, 30 μL of the reaction mixture was respectively pipetted and added to 300 μL of the reaction stop solution. Samples from all time points were vortexed vigorously for 1 minute and centrifuged at 4000 rpm for 15 minutes at 4° C. 100 μL of the supernatant was added to 100 μL of pure water and mixed well for LC-MS/MS analysis.
The slope (ke) was determined by plotting the natural logarithm of the percentage of compound remaining against time, and the Tin and intrinsic clearance (CLint) were calculated based on the first-order kinetic formula: […]
The compound remaining rate is calculated as follows:
Intrinsic clearance CLint (μL/min/mg protein)=0.693*1000/T1/2/protein concentration (0.5 mg protein/mL)

[3] = cryopreserved hepatocytes, Human hepatocytes
[4] = cryopreserved hepatocytes, Mouse hepatocytes
[5] = cryopreserved hepatocytes, Rat hepatocytes
[6] = cryopreserved hepatocytes in suspension, Human hepatocytes
[7] = cryopreserved hepatocytes in suspension, Mouse hepatocytes
[8] = cryopreserved hepatocytes in suspension, Rat hepatocytes
[9] = ICR/CD-1, pH 7.4, Mouse liver microsomes
[10] = Sprague Dawley, pH 7.4, Rat liver microsomes

[2H]C([2H])([2H])Oc1nc(C(=O)NS(=O)(=O)C2CC2)ccc1NCC#Cc1cc2c(N[C@@H]3CCN(C)C[C@@H]3F)cccn2c1CC(F)(F)F [Cpd-4, N-(Cyclopropylsulfonyl)-5-((3-(8-(((3S,4R)-3-fluoro-1-methylpiperidin-4-yl)amino)-3-(2,2,2-trifluoroethyl)indolizin-2-yl)prop-2-yn-1-yl)amino)-6-(methoxy-d3)picolinamide]
IC50 (NUGC-3 cells): 97 nM

[2H]C([2H])([2H])Oc1nc(C(=O)NS(=O)(=O)CC2CC2)ccc1NCC#Cc1cc2c(N[C@@H]3CCN(C)C[C@@H]3F)cccn2c1CC(F)(F)F [Cpd-5, N-((Cyclopropylmethyl)sulfonyl)-5-((3-(8-(((3S,4R)-3-fluoro-1-methylpiperidin-4-yl)amino)-3-(2,2,2-trifluoroethyl)indolizin-2-yl)prop-2-yn-1-yl)amino)-6-(methoxy-d3)picolinamide]
IC50 (NUGC-3 cells): 81 nM

[2H]C([2H])([2H])Oc1nc(C(=O)NS(=O)(=O)CC(F)(F)F)ccc1NCC#Cc1cc2c(N[C@@H]3CCN(C)C[C@@H]3F)cccn2c1CC(F)(F)F [Cpd-6, 5-((3-(8-(((3S,4R)-3-Fluoro-1-methylpiperidin-4-yl)amino)-3-(2,2,2-trifluoroethyl)indolizin-2-yl)prop-2-yn-1-yl)amino)-6-(methoxy-d3)-N-((2,2,2-trifluoroethyl)sulfonyl)picolinamide]
IC50 (NUGC-3 cells): 190 nM

COc1nc(C(=O)NS(=O)(=O)C2CC2)ccc1NCC#Cc1cc2c(N[C@@H]3CCN(C)C[C@@H]3F)cccn2c1CC(F)(F)F [Cpd-7, N-(Cyclopropylsulfonyl)-5-((3-(8-(((3S,4R)-3-fluoro-1-methylpiperidin-4-yl)amino)-3-(2,2,2-trifluoroethyl)indolizin-2-yl)prop-2-yn-1-yl)amino)-6-methoxypicolinamide]
IC50 (NUGC-3 cells): 70 nM

[2H]C([2H])([2H])Oc1nc(C(=O)NS(C)(=O)=O)ccc1NCC#Cc1cc2c(N[C@H]3CCN(C)C[C@H]3F)cccn2c1CC(F)(F)F [Cpd-8, 5-((3-(8-(((3R,4S)-3-Fluoro-1-methylpiperidin-4-yl)amino)-3-(2,2,2-trifluoroethyl)indolizin-2-yl)prop-2-yn-1-yl)amino)-6-(methoxy-d3)-N-(methylsulfonyl)picolinamide]
IC50 (NUGC-3 cells): 340 nM

[2H]C([2H])([2H])Oc1nc(C(=O)NS(C)(=O)=O)ccc1NCC#Cc1cc2c(N[C@H]3CCN(C)C[C@@H]3F)cccn2c1CC(F)(F)F [Cpd-9, 5-((3-(8-(((3S,4S)-3-Fluoro-1-methylpiperidin-4-yl)amino)-3-(2,2,2-trifluoroethyl)indolizin-2-yl)prop-2-yn-1-yl)amino)-6-(methoxy-d3)-N-(methylsulfonyl)picolinamide]
IC50 (NUGC-3 cells): 550 nM

[2H]C([2H])([2H])Oc1nc(C(=O)NS(C)(=O)=O)ccc1NCC#Cc1cc2c(N[C@@H]3CCN(C)C[C@H]3F)cccn2c1CC(F)(F)F [Cpd-10, 5-((3-(8-(((3R,4R)-3-Fluoro-1-methylpiperidin-4-yl)amino)-3-(2,2,2-trifluoroethyl)indolizin-2-yl)prop-2-yn-1-yl)amino)-6-(methoxy-d3)-N-(methylsulfonyl)picolinamide]
IC50 (NUGC-3 cells): 900 nM

COc1cc(S(C)(=O)=O)ccc1NCC#Cc1nc2c(N[C@@H]3CCN(C)C[C@@H]3F)cccn2c1CC(F)(F)F [Cpd-B, reference compound]
IC50 at 10 min (CYP3A4/5): 3.2 µM
hepatocyte CLint at 1 μM [1, 3]: 16.8 µL/min/1e6 cells
half-life at 1 μM [1, 3]: 82 min
hepatocyte CLint at 1 μM [1, 4]: 198 µL/min/1e6 cells
half-life at 1 μM [1, 4]: 7 min
hepatocyte CLint at 1 μM [1, 5]: 63.8 µL/min/1e6 cells
half-life at 1 μM [1, 5]: 22 min

CNC(=O)c1ccc(NCC#Cc2cc3c(N[C@@H]4CCN(C)C[C@@H]4F)cccn3c2CC(F)(F)F)c(OC)c1 [Cpd-C, 4-((3-(8-(((3S,4R)-3-Fluoro-1-methylpiperidin-4-yl)amino)-3-(2,2,2-trifluoroethyl)indolizin-2-yl)prop-2-yn-1-yl)amino)-3-methoxy-N-methylbenzamide, reference compound]
hepatocyte CLint at 1 μM [1, 6]: 18.4 µL/min/1e6 cells
half-life at 1 μM [1, 6]: 75 min
hepatocyte CLint at 1 μM [1, 7]: 31.8 µL/min/1e6 cells
half-life at 1 μM [1, 7]: 44 min
hepatocyte CLint at 1 μM [1, 8]: 15.7 µL/min/1e6 cells
half-life at 1 μM [1, 8]: 88 min
microsomal CLint at 1 μM [2, 9]: 83.9 µL/min/mg
half-life at 1 μM [2, 9]: 17 min
microsomal CLint at 1 μM [2, 10]: 61.5 µL/min/mg
half-life at 1 μM [2, 10]: 23 min
microsomal CLint at 1 μM ([2]; pH 7.4, Human liver microsomes): 28.3 µL/min/mg
half-life at 1 μM ([2]; pH 7.4, Human liver microsomes): 49 min
